Measurements: PubChem BioAssay (NCI)
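Where inhibition never reached the appropriate level, the endpoint shown equals the highest concentration tested. Otherwise, values were interpolated linearly from a five-concentration, 48-hour dose response in 96-well plates. GI50 = concentration required for 50% inhibition of growth. TGI: total growth inhibition.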

How the values were obtained:
Experiment in all cases: growth of human tumour cells (NCI), 48 h
M14 melanoma = tested on: M14 melanoma
LOX IMVI melanoma = tested on: LOX IMVI melanoma
NCI-H226 lung = tested on: NCI-H226 lung
786-0 renal = tested on: 786-0 renal
A498 renal = tested on: A498 renal
MALME-3M melanoma = tested on: MALME-3M melanoma
HCT-15 colon = tested on: HCT-15 colon
TK-10 renal = tested on: TK-10 renal
HCC-2998 colon = tested on: HCC-2998 colon
OVCAR-5 ovarian = tested on: OVCAR-5 ovarian

SMILES | GI50 (M14 melanoma) [µM] | TGI (M14 melanoma) [µM] | GI50 (LOX IMVI melanoma) [µM] | TGI (LOX IMVI melanoma) [µM] | GI50 (NCI-H226 lung) [µM] | TGI (NCI-H226 lung) [µM] | GI50 (786-0 renal) [µM] | TGI (786-0 renal) [µM] | GI50 (A498 renal) [µM] | TGI (A498 renal) [µM] | GI50 (MALME-3M melanoma) [µM] | TGI (MALME-3M melanoma) [µM] | GI50 (HCT-15 colon) [µM] | TGI (HCT-15 colon) [µM] | GI50 (TK-10 renal) [µM] | TGI (TK-10 renal) [µM] | GI50 (HCC-2998 colon) [µM] | TGI (HCC-2998 colon) [µM] | GI50 (OVCAR-5 ovarian) [µM] | TGI (OVCAR-5 ovarian) [µM]
CC(=O)/C=C/C1=C(c2csc3ccccc23)c2ccccc2CC1 | 16.5 | 37.3 | 16.9 | 48.4 | 19.8 | 44.1 | 35.7 | > 100 | 22.4 | 50.2 | 21.7 | 55.4 | 23.5 | > 100 | 23.5 | 92.9 | 24.3 | 49.6 | 33.8 | > 100
N#CC(C#N)=Cc1ccc(CP(=O)(O)O)cc1 |  | > 100 |  | > 100 |  | > 100 |  | > 100 |  | > 100 |  | > 100 |  | > 100 |  | > 100 |  | > 100 |  | > 100
COc1cc(OC)c(OC)cc1/C=C/c1cnnc2ccccc12 |  | > 10 |  | > 10 |  | > 10 |  | > 10 |  | > 10 |  | > 10 |  | > 10 |  | > 10 |  | > 10 |  | > 10
CCCCc1c2cnccc2c(CCCC)c2c1[nH]c1ccccc12 |  | 41.1 |  | 41.4 |  | 34 |  | 24.1 |  | 35.2 |  | 37.8 |  | 46 |  | 34.6 |  | > 100 |  | > 100
Cc1ccc2c(c1)C(=O)c1c-2c(OCCCN(C)C)nc2ccccc12 | 1.62 | 3.23 | 1.18 | 2.52 | 2.49 | 13.7 | 2.98 | 18.1 | 4.02 | 14.3 | 1.54 | 3.29 | 0.548 | 1.94 | 7.9 | 23.3 | 2.18 | 11.8 | 1.47 | 3.65
C[C@H]1CNC(=O)c2cnn3ccc(nc23)N[C@H](C)c2cc(F)ccc2O1 | 1.78 | > 100 | 0.334 | 1.43 | 1.03 | 3.83 | 0.495 | 2.11 | 0.216 | 0.886 | 16.6 | > 100 | 2.05 | 13.4 | 0.749 | 3.12 | 3.26 | 70.3 | 0.385 | 9.56
CC([C@H]1CC=C2C3CCC4=C[C@@H](N(C)C)CC[C@]4(C)C3CC[C@@]21C)N(C)C (stereo not given in full) | 1.76 | 3.53 | 1.6 | 3.69 | 4.52 | 21.5 | 2.94 | 7.99 | 3.27 | 13.9 | 1.92 | 4.47 | 1.38 | 3.82 | 5.42 | 20 | 4.21 | 13.1 | 6.23 | 19.5
COc1ccc2c(c1OC)C(C(Cl)(Cl)Cl)N1CCc3cc4c(cc3C1=C2)OCO4 (stereo not given) |  | > 100 |  | > 100 |  | 70.1 |  | 55.5 |  | > 100 |  | 37.3 |  | > 100 |  | > 100 |  | 29.5 |  | > 100
Cn1c(-c2ccccc2)c(/C=C/C2=[N+](C)c3ccccc3C2(C)C)c2ccccc21 | 0.963 | 3.4 | 0.527 | 3.25 | 2.35 | 12.2 | 2.18 | 9.02 | 1.71 | 10.9 | 0.68 | 3.1 | 3.92 | 22.1 | 1.35 | 11.5 | 0.365 | 3.42 | 3.96 | 20
COC(=O)C(=O)C(C(=O)C(=O)Nc1ccccc1OC)c1nc2ccc([N+](=O)[O-])cc2[nH]c1=O (stereo not given) |  | > 100 |  | > 100 |  | > 100 |  | > 100 |  | > 100 |  | > 100 |  | > 100 |  | > 100 |  | > 100 |  | > 100
CC1CC(C)C2OC2(C)C[C@H](C)C(=O)NC(C)C(=O)N(C)[C@H](Cc2c(Br)[nH]c3ccccc23)C(=O)N[C@@H](c2ccc(O)cc2)CC(=O)O1 (stereo not given in full) |  | 19.5 |  | 1.66 |  | 2.23 |  | 19.1 |  | 1.79 |  | 14 |  | > 100 |  | 5.44 |  | 0.505 |  | 18.8
C[n+]1c2ccccc2nc2ccccc21 | 1.67 | 3.89 | 0.819 | 2.38 | 2.63 | 9.47 | 2.31 | 8.47 | 1.75 | 3.46 | 1.22 | 2.7 | 2.07 | 10.8 | 2.71 | 13 | 2.11 | 7.22 | 1.66 | 3.56
NC(N)=NC(N)=NCCCc1ccco1 | 53.6 | 123 | 52.2 | 121 | 98.3 | 351 | 83.5 | 265 | > 500 | > 500 | 18.7 | 66.2 | > 500 | > 500 | 22.7 | 119 | > 500 | > 500 | 148 | > 500
Cc1ccc(S(=O)(=O)c2ccc(C)cc2[N+](=O)[O-])cc1 |  | > 100 |  | > 100 |  | > 100 |  | > 100 |  | > 100 |  | > 100 |  | > 100 |  | > 100 |  | > 100 |  | > 100
C=C1C(=O)O[C@H]2[C@H]1CC/C(COC(=O)CCCc1c[nH]c3ccccc13)=C\CC[C@@]1(C)O[C@@H]21 | 1.66 | 3.87 | 1.55 | 2.95 | 2.04 | 4.38 | 1.6 | 3.2 | 11.9 | 24.3 | 1.79 | 3.56 | 1.61 | 3.99 | 1.64 | 3.07 | 1.79 | 3.46 | 1.89 | 3.98
